Legend:
[1] = biological target: dopaminergic receptors D2 (Homo sapiens, UniProt P14416); assay: Radioligand binding assay, dopaminergic D2 receptors; conditions: for Ki: read-out: Inhibition constants Ki for D2 receptors, D2
Summary of the method: (§1)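 Scintillation read-out. Specific = total − nonspecific (excess cold ligand). Data as % of control specific binding / % inhibition; IC50 by Hill fit; Ki = IC50/(1+L/KD), KD from Scatchard plot.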

receptors D4.4 = biological target: T1, receptors D4.4 (Homo sapiens, UniProt P21917); assay: Radioligand binding assay, dopaminergic D4 (D4.4) receptors; conditions: test compound 1×10^−6 M
T1 sequence (P21917 1-419): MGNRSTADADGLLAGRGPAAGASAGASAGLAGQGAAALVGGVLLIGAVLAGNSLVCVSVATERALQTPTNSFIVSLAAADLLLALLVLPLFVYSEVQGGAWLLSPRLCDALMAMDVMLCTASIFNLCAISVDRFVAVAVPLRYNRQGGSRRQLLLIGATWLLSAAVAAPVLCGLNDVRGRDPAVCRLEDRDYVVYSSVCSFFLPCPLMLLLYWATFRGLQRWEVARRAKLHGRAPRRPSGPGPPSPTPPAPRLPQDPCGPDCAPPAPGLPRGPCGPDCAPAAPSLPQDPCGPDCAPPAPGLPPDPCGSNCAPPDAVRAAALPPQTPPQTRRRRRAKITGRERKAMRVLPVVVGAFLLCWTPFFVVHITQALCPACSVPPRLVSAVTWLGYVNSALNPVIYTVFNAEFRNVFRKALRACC
Summary of the method: as §1

5-HT2A receptor = biological target: T2, 5-HT2A receptor (Homo sapiens, UniProt P28223); assay: Radioligand binding assay, serotoninergic 5-HT2A receptors; conditions: for Ki: read-out: Inhibition constants Ki, 5-HT2A
T2 construct: purchased PerkinElmer
T2 sequence (P28223 whole entry): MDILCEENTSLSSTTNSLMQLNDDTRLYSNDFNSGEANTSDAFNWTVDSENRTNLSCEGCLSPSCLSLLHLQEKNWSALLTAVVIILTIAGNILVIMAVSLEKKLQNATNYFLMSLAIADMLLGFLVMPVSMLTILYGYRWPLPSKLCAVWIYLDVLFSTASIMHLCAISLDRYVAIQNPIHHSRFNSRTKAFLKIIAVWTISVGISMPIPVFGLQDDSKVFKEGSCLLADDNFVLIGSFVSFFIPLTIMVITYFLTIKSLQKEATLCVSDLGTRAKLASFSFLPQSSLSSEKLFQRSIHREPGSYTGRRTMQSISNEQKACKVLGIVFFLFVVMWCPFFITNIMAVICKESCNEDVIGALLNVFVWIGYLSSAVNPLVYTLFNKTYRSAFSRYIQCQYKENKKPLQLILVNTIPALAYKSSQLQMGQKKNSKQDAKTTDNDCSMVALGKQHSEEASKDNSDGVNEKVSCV
Summary of the method: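 Competition curves from scintillation-counted specific binding (total minus binding with excess unlabelled ligand) were Hill-fitted to give IC50, converted to Ki via Cheng-Prusoff using Scatchard-derived Kd.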

5-HT7 receptor = biological target: T3, 5-HT7 receptor (Homo sapiens, UniProt P34969); assay: Radioligand binding assay, serotoninergic 5-HT7 receptors; conditions: binding assay result in %, Table 5a;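 further: test compound at 1 µM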
T3 construct: purchased PerkinElmer
T3 sequence (P34969 whole entry): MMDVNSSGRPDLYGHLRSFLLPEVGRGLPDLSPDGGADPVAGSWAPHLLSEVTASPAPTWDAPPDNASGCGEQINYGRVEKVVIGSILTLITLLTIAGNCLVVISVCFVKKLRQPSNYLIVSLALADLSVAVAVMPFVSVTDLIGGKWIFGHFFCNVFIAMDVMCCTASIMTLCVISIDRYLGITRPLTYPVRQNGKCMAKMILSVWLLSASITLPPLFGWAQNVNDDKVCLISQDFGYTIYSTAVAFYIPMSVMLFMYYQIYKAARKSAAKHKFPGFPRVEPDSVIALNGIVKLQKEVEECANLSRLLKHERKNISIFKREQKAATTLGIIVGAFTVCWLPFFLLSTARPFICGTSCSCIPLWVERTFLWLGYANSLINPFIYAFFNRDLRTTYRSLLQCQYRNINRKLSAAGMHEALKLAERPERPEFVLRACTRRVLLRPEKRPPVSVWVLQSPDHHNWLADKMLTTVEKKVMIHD
Summary of the method: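 Ki values used the Cheng–Prusoff equation, with KD from Scatchard analysis, applied to IC50 from Hill fits of human 5-HT7 radioligand competition curves. Bound radioligand was counted by scintillation, and excess unlabelled ligand set the non-specific binding.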

α2C adrenergic receptors = biological target: T4, α2C adrenergic receptors (Homo sapiens, UniProt P18825); assay: Radioligand binding assay, adrenergic α2C receptors; conditions: test compound 1×10^−6 M
T4 construct: expressed in transfected cells; host or cells: CHO cells
T4 sequence (P18825 1-462): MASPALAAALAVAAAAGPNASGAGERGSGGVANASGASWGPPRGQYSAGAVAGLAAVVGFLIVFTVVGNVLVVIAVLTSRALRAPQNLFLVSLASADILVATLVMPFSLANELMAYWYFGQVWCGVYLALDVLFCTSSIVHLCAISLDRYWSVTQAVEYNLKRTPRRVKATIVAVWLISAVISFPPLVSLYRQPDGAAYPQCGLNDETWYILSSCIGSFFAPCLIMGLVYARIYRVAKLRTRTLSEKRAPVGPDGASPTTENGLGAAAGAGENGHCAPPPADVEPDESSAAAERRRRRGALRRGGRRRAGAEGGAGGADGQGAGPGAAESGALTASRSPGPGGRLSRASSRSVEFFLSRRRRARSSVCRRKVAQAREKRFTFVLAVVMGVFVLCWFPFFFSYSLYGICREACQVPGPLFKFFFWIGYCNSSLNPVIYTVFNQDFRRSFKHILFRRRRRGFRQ
Summary of the method: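 Competitive radioligand binding at human α2C receptors, with scintillation counting. Nonspecific binding defined with excess unlabelled ligand; results given as % inhibition of control specific binding. IC50 from Hill-equation fits of competition curves; Ki via Cheng-Prusoff using radioligand concentration and Scatchard-derived KD.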

[2] = biological target: T5, serotonin transporter (SERT) (Homo sapiens, UniProt P31645); assay: Radioligand binding assay, serotonin transporter (SERT); conditions: binding assay, test compound 1×10^−6 M
T5 construct: expressed in transfected cells; host or cells: CHO cells
T5 sequence (P31645 whole entry): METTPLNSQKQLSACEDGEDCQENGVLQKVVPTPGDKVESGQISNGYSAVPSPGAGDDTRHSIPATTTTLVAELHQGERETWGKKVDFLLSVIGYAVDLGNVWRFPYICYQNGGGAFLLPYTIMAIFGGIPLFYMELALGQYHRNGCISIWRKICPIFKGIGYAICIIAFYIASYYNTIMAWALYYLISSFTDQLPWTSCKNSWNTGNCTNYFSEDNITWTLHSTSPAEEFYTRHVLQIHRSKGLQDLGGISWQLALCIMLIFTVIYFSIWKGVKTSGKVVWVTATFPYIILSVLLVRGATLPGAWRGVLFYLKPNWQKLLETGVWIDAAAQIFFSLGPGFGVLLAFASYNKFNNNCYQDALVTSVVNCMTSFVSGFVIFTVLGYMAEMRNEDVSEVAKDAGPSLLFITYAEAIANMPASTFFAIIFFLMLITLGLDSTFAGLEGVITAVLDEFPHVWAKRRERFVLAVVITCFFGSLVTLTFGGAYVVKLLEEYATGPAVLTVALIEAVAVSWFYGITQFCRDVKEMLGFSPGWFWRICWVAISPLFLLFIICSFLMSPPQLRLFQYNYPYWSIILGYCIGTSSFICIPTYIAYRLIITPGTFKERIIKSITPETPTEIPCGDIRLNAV
Summary of the method: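 Values are derived from competition curves fitted by the Hill equation to give IC50, then converted to Ki by Cheng-Prusoff with radioligand Kd from Scatchard analysis. Specific binding equals total minus non-specific (excess cold ligand), counted by scintillation, and is also expressed as percent inhibition of control.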

[3] = biological target: T6, H1 histaminergic receptors (Homo sapiens, UniProt P35367); assay: Radioligand binding assay, histaminergic H1 receptors; conditions: human recombinant (HEK-293 cells), [3H]pyrilamine 1 nM
T6 construct: expressed in transfected cells; host or cells: HEK-293 cells
T6 sequence (P35367 whole entry): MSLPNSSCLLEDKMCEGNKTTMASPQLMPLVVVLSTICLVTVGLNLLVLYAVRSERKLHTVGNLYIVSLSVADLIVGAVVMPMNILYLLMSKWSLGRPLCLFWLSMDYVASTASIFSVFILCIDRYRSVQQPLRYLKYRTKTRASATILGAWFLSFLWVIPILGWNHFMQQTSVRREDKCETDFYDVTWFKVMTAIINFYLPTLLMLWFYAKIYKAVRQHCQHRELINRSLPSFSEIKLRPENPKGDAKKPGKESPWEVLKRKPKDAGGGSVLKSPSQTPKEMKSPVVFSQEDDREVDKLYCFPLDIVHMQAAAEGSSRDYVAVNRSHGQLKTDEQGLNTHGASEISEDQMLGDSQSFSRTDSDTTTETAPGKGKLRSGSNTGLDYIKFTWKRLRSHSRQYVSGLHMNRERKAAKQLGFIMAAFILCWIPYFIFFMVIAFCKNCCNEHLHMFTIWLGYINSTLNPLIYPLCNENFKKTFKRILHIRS
Summary of the method: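 Competition binding at human H1 receptors; specific binding taken as total minus non-specific binding in excess unlabelled ligand, scintillation read-out. IC50 from Hill-equation fit of competition curves; Ki by Cheng-Prusoff using radioligand concentration and Kd (from Scatchard plot).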

σ receptors = assay: Radioligand binding assay, σ receptors; conditions: rat cerebral cortex, [3H]DTG 8 nM
Summary of the method: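 Values derive from radioligand displacement, with non-specific binding defined by excess cold ligand and detection by scintillation. Hill-fit IC50s were converted to Ki via Cheng-Prusoff using Scatchard-derived Kd; percent inhibition of control specific binding also reported.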

[4] = binding assay, test compound 1×10^−6 M
[5] = binding assay result in %, Table 5a

dopaminergic receptors D2, sequence (P14416 whole entry): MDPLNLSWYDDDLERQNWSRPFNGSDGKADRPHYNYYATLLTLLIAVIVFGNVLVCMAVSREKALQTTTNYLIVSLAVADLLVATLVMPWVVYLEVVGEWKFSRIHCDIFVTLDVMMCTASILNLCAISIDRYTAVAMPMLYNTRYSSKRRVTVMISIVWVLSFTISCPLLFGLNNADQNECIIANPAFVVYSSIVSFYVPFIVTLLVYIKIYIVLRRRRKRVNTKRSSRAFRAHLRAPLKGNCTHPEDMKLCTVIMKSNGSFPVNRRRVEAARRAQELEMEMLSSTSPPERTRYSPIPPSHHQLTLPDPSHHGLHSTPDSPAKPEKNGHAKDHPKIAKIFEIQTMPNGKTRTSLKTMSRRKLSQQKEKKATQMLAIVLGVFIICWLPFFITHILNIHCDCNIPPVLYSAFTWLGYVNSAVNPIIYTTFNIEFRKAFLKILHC

| SMILES | D2 [%] [1, 4] | D4.4 [%] (receptors D4.4) | 5-HT2A [%] (5-HT2A receptor; [5]) | 5-HT7 [%] (5-HT7 receptor) | α2C [%] (α2C adrenergic receptors) | SERT [%] [2] | H1 [%] [3] | σ [%] (σ receptors) | inhibition at 1 µM [1, 4] | Ki [1] | inhibition at 1 µM (receptors D4.4) | Ki (5-HT2A receptor) | inhibition at 1 µM (5-HT7 receptor) | inhibition at 1 µM (α2C adrenergic receptors) | inhibition at 1 µM [2] | inhibition at 1 µM [3] | inhibition at 1 µM (5-HT2A receptor; [5]) |
| --- | --- | --- | --- | --- | --- | --- | --- | --- | --- | --- | --- | --- | --- | --- | --- | --- | --- |
| O=S(=O)(NC1CCN(CCOc2cccc3ccccc23)C1)c1cccc(O)c1 (centres unmarked) [Compound 115, 3-Hydroksy-N-[1-[2-(1-naphthyloxy)ethyl]pyrrolidin-3-yl]benzenesulphonamide] | 74% | 55% | 99% | 98% | 90% | 83% | 72% | 69% | – | – | – | – | – | – | – | – | – |
| COc1ccc2cc(S(=O)(=O)N[C@H]3CCN(CCCc4noc5cc(F)ccc45)C3)ccc2c1 [Compound 231, N-[(3S)-1-[3-(6-Fluoro-1,2-benzoxazol-3-yl)propyl]pyrrolidin-3-yl]-6-methoxy-naphthalene-2-sulphonamide] | – | – | – | – | – | – | – | 87% | 95% | 6.4 nM | 89% | 1.9 nM | 88% | 89% | 63% | 54% | – |
| O=S(=O)(NCC1CCN(CCCc2noc3cc(F)ccc23)C1)c1ccc2cc(Cl)ccc2c1 (centres unmarked) [Compound 237, 6-Chloro-N-[[1-[3-(6-fluoro-1,2-benzoxazol-3-yl)propyl]pyrrolidin-3-yl]methyl]naphthalene-2-sulphonamide] | – | – | – | – | – | – | – | 88% | 97% | – | 48% | – | 96% | 82% | 61% | 66% | 97% |
| Cc1c(S(=O)(=O)NCC2CCN(CCCc3noc4cc(F)ccc34)C2)sc2ccc(Cl)cc12 (centres unmarked) [Compound 238, 5-Chloro-N-[[1-[3-(6-fluoro-1,2-benzoxazol-3-yl)propyl]pyrrolidin-3-yl]methyl]-3-methyl-benzothiophene-2-sulphonamide] | – | – | – | – | – | – | – | 95% | 98% | 3.9 nM | 48% | 3 nM | 94% | 94% | 64% | 65% | 99% |
| CC(C)(C)c1ccc(S(=O)(=O)NCC2CN(CCOc3cccc4c3OCCO4)C2)cc1 [Compound 181, 4-tert-Butyl-N-[[1-[2-(2,3-dihydro-1,4-benzodioxin-5-yloxy)ethyl]azetidin-3-yl]methyl]benzenesulphonamide] | – | – | – | – | – | – | – | 75% | 73% | – | 64% | – | 92% | 96% | 26% | 27% | 89% |
| Cc1cc(S(=O)(=O)NCC2CCN(CCOc3cccc4c3OCCO4)C2)c(C)s1 (centres unmarked) [Compound 312, N-[[1-[2-(2,3-Dihydro-1,4-benzodioxin-5-yloxy)ethyl]pyrrolidin-3-yl]methyl]-2,5-dimethylthiophene-3-sulphonamide] | – | – | – | – | – | – | – | 92% | 36% | – | 52% | – | 86% | 94% | 87% | 35% | 87% |
| O=S(=O)(NCC1CCN(CCCc2noc3cc(F)ccc23)C1)c1ccc2ccccc2c1 (centres unmarked) [Compound 240, N-[[1-[3-(6-Fluoro-1,2-benzoxazol-3-yl)propyl]pyrrolidin-3-yl]methyl]-naphthalene-2-sulphonamide] | – | – | – | – | – | – | – | 92% | 95% | – | 57% | – | 90% | 84% | 43% | 55% | 99% |

Source: patent US20140135310A1, “SULPHONAMIDE DERIVATIVES OF ALICYCLIC AMINES FOR THE TREATMENT OF CENTRAL NERVOUS SYSTEM DISEASES” (Adamed Sp. z o.o., priority 2011, published 2014)
